Results reported in PubChem BioAssay AID179 (DTP/NCI, 2004).
Where “and” joins values, the source holds several entries; their conditions need not be identical. Equal entries are not always repeated. Calls of active or inactive are those of the source.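 The calls were made as follows: active = compounds giving half or more protection of infected cells from virus-caused growth loss, again on retest; inactive = the rest.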 Where a SMILES comes first, the peptide text is derived from it. [ ]: non-standard residue; d: D form. The star is where a group is joined. ξ: configuration not given here. ξPhe(4-NO2) = NC(Cc1ccc([N+](=O)[O-])cc1)C(=O)O; Boc = CC(C)(C)OC(=O)*

Tested on: CEM cells HIV-1 protection, formazan growth assay
Assay: NCI AIDS Antiviral Assay
Conditions: for IC50: measured here: growth of uninfected CEM cells
Procedure, shortened: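 Protection of CEM cells against HIV-1 measured as cell growth via soluble formazan read-out, with five concentrations tested on both infected and uninfected cells; failure to protect may reflect toxicity.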

Compound | EC50 | IC50 | outcome
CC(C)N(C(=O)C1(C)CC1)C(C)C | > 1350 µM | > 1350 µM | –
Cc1ccccc1-n1c(=S)[nH]c2c(sc(=O)n2-c2ccccc2C)c1=O | > 3.8 µM | > 3.8 µM | –
Nc1ncnc2c1ncn2CC(=O)NCCO | > 200 µM | > 200 µM | –
COC1/C=C\OC2(C)Oc3c(C)c(O)c4c(O)c(c(/C=N\O)c(O)c4c3C2=O)NC(=O)/C(C)=C\C=C/C(C)C(O)C(C)C(O)C(C)C(OC(C)=O)C1C (centres undefined) | > 77.6 µM | 74.1 µM | –
C=CCN(c1cc(OC)c2[nH]cc(C)c2c1[N+](=O)[O-])S(C)(=O)=O | 97.7 µM | > 100 µM | –
CN(CC(O)C(O)CN(C)C(=S)S)C(=S)S (centres undefined) | > 661 µM | 170 µM | –
C=Cc1c(Cl)nc(C)c(C)c1-c1ccc(OC)c(OC)c1OCc1ccccc1 | > 200 µM | 25.1 µM | –
CC(C)(C)c1c(C(C)(C)C)c(=O)c1=O | > 200 µM | > 200 µM | –
O=c1ccc2cc3ccoc3c(OCCCCCCBr)c2o1 | > 75.9 µM | 30.9 µM | –
CC(=O)CC1(C)OC(N)=C(C#N)C1(C#N)C#N (centres undefined) | > 200 µM | 162 µM | –
CCNC(=O)CNC(=O)C(Cc1ccc([N+](=O)[O-])cc1)NC(=O)OC(C)(C)C (centres undefined) (Boc-[ξPhe(4-NO2)]-Gly-NHEt) | 162 µM | 813 µM | –
Cc1c(C)c(CC(C)(COS(C)(=O)=O)COS(C)(=O)=O)c(C)c(C)c1CC(C)(COS(C)(=O)=O)COS(C)(=O)=O | > 20.9 µM | > 20.9 µM | –
CC1(CO)C2CC3CN(C(=O)c4ccccc4)C(C2)[C@]31C (some centres undefined) | – | – | inactive
COc1cc(N)c2c(c1)SC(C)C(=O)N2 (centres undefined) | > 200 µM | 186 µM | –
CS(=O)(=O)c1nc(NCCc2ccccc2)c2cnn(C3CCCCO3)c2n1 (centres undefined) | – | – | inactive
CCOC(=O)C1C(C)C2(C#N)C(=N)OC1(C)C2(C#N)C#N (centres undefined) | > 200 µM | 83.2 µM | –
CCOC(=O)CCc1c(C)c2c(OC)cc(OC)cc2oc1=O | – | – | inactive
COC(=O)[C@H]1C=C[C@@H](C)n2c(=O)c3cc4ccccc4cc3c(=O)n21 | > 21.4 µM | > 21.4 µM | –
C=C(C)Cn1c(N)c(N=O)c(=O)n(CC)c1=O | > 200 µM | 158 µM | –
CN(C)CCSc1nccc(-c2ccc(-c3ccnc(SCCN(C)C)n3)s2)n1 | > 102 µM | 0.182 µM | –
COc1ccc(C2c3cc4c(cc3OC(N3CCCCC3)C2C)OCO4)cc1 (centres undefined) | > 200 µM | > 200 µM | –
CN1CCN=C1c1ccc(NC(=O)Nc2ccc(NC(=O)Nc3ccc(C4=NCCN4C)cc3)cc2)cc1 | > 200 µM | 38.9 µM | –

Compound | EC50 | IC50 | outcome
CC(=O)NC1=C(C)C(=O)c2c(nc3n2CCC3O)C1=O (centres undefined) | > 200 µM | 1.58 µM | –
O=C(Nc1cc2c(=O)oc3ccccc3c2oc1=O)c1cccnc1 | > 100 µM | > 100 µM | –
COc1cc2c(o1)C(=O)N1CCc3c([nH]c4ccccc34)C21 (centres undefined) | > 115 µM | 64.6 µM | –
CC(=N\N=C\c1ccccn1)/C(C)=N/N=C(C)/C(C)=N/N=C(C)/C(C)=N/N=C/c1ccccn1 | – | – | inactive
COC(=O)N[C@H](C(=O)NC(OCc1ccccc1)C1COC(C)(C)O1)C(C)O[Si](C)(C)C(C)(C)C (some centres undefined) | > 70.8 µM | > 70.8 µM | –
CCCCC[C@@H]1CCCC2C1CCC(CCCCCO)N2C(=O)OCC(Cl)(Cl)Cl (some centres undefined) | – | – | inactive
Oc1ccc(O)c2c1N=NC21c2ccccc2Oc2ccccc21 | > 112 µM | 33.1 µM | –
CC(=O)On1c(-c2ccccc2-c2nc3ccccc3n2OC(C)=O)nc2ccccc21 | > 200 µM | 77.6 µM | –
COC1=CC(=O)C(C#CCOCc2ccccc2)=CC1=O | > 200 µM | 14.8 µM | –
O=C1c2ccccc2CC12CCC1(CC2)OCCO1 | > 200 µM | > 200 µM | –
O=C1/C(=C/c2ccc3c(c2)OCCO3)CCC/C1=C\c1ccc2c(c1)OCCO2 | > 6.92 µM | > 6.92 µM | –
CC(=O)OC(/C=C/c1ccccc1)=C(OC(C)C)/C1=C(\c2ccccc2)SCCCSC1=O | > 200 µM | > 200 µM | –
CCCC/C=C(/CCCBr)[Si](C)(C)C | > 339 µM | > 339 µM | –
CC(=O)OCCc1cccnc1/C=N/O | > 1200 µM | 204 µM | –
Cc1cc(C)c(C2=[N+]([O-])ON3CCc4ccccc4C23)c(C)c1 (centres undefined) | > 115 µM | > 115 µM | –
O=C1NN=C(c2ccc(Cl)cc2)CC1C1C(=O)N(c2ccccc2)N=C1c1ccccc1 (centres undefined) | > 100 µM | 49 µM | –
COc1onc(C)c1CC(=O)O | > 200 µM | > 200 µM | –
Cn1c(=O)oc2cc(Br)ccc21 | > 200 µM | > 200 µM | –
N#Cc1c(N)nc(SCc2ccccc2)c(C#N)c1-c1ccc(O)cc1 | > 200 µM | 10 µM | –
CN(C)CCNC(=O)c1ccc(Cl)c2c(Nc3ccc(S(=O)(=O)N=C(N)N)cc3)c3ccccc3nc12 | – | – | inactive
N#CCCN(c1ccc(C=Nc2ccccc2)cc1)S(=O)(=O)c1ccccc1 | – | – | inactive
CCCCCCCCCCCCCCCCCCNc1ccn(C2OC(CO)C(OP(=O)(O)OCC3CCC(n4ccc(N)nc4=O)O3)C2O)c(=O)n1 (centres undefined) | 1.1 µM | 15.8 µM | –

Compound | EC50 | IC50 | outcome
COc1cccc(Nc2nc3c([nH]2)c(=O)n(C)c(=O)n3C)c1 | > 170 µM | 89.1 µM | –
CCCCCCCSCc1nc2ccccc2c(C)[n+]1[O-] | > 66.1 µM | 50.1 µM | –
O=[N+]([O-])c1ccc(C2=Nn3c(nnc3-c3ccccc3)SC2)o1 | – | – | inactive
N#CC(C(=O)/C(=N\Nc1nc(=S)[nH]n1N)C(C#N)c1ccc(Cl)cc1)c1ccc(Cl)cc1 (centres undefined) | > 53.7 µM | > 53.7 µM | –
CN1C(=O)[C@@H]2[C@@H]3c4ccccc4N(S(=O)(=O)C(F)(F)F)[C@@H]3c3[nH]c4ccccc4c3[C@@H]2C1=O | > 200 µM | 9.33 µM | –
COc1ccc2c(c1)CCN1C3=C(CCC3)C(=O)C[C@@H]21 | – | – | inactive
FC(F)(F)c1ccc(C2=N/S(c3ccccc3)=N\C(c3ccc(C(F)(F)F)cc3)=N/S(c3ccccc3)=N\2)cc1 (centres undefined) | > 50.1 µM | > 50.1 µM | –
O=c1[nH]c(=O)n(C2OC(CO)C(O)C2O)cc1Oc1ccccc1 (centres undefined) | > 200 µM | > 200 µM | –
COC1/C=C/OC2(C)Oc3c(C)c(O)c4c(O)c(c(C=NOC(c5ccccc5)c5ccccc5)c(O)c4c3C2=O)NC(=O)/C(C)=C/C=C/C(C)C(O)C(C)C(O)C(C)C(OC(C)=O)C1C (centres undefined) | > 200 µM | 4.79 µM | –
CCNC(=O)COc1cc2c(O)c3c(O)c(C)c4c(c13)C(=O)C(C)(O/C=C/C(OC)C(C)C(OC(C)=O)C(C)C(O)C(C)C(O)C(C)/C=C/C=C(\C)C(=O)N2)O4 (centres undefined) | > 200 µM | 83.2 µM | –
O=c1oc(-c2ccccc2)c(-c2ccccc2)c(-c2ccccc2)c1-c1ccccc1 | > 46.8 µM | 29.5 µM | –
O=C1C=CC(=O)c2c1ccc1c3ccccc3n(CCCCCn3c4ccccc4c4ccc5c(c43)C(=O)C=CC5=O)c21 | > 200 µM | 3.31 µM | –
COc1ccc2c(c1)OCC1Cc3cccc(OC)c3OC21 (centres undefined) | > 200 µM | 44.7 µM | –
O=C1[C@@H]2C(c3ccccn3)=NO[C@@H]2C(=O)N1c1ccc(Cc2ccc(N3C(=O)[C@H]4C(c5ccccn5)=NO[C@H]4C3=O)cc2)cc1 | > 8.71 µM | > 8.71 µM | –
COc1ccc(C2=CC3CCC2C3)cc1 (centres undefined) | – | – | inactive
CCOC(=O)c1c(N2CCCC2)nsc1Nc1ccc(F)cc1 | > 200 µM | 23.4 µM | –
N#CC(C(=N/NC(N)=S)/C(=N/NC(N)=S)C(C#N)c1ccc(Cl)cc1)c1ccc(Cl)cc1 (centres undefined) | > 257 µM | 186 µM | –
O=c1oc2ccccc2c(O)c1C(c1ccc([N+](=O)[O-])cc1)c1c(O)c2ccccc2oc1=O | – | – | inactive
O=C1CN(c2ccccc2)CC(=O)N2C(c3ccccc3)CCCN12 (centres undefined) | – | – | inactive
COc1cc2c(cc1OC)NC(C)=CC(C)=N2 | > 200 µM | > 200 µM | –
O=C(N/C(=C\c1cc(Cl)ccc1Cl)c1nc2[nH]c(=S)[nH]c(=O)c2[nH]1)c1ccccc1 | > 79.4 µM | 21.9 µM | –
Cc1nc(N)nn1C1OCC(O)C(O)C1O (centres undefined) | – | – | inactive

Compound | EC50 | IC50 | outcome
CC(CCC(C)OS(=O)(=O)c1ccc(F)cc1)OS(=O)(=O)c1ccc(F)cc1 (centres undefined) | – | – | inactive
CN(C)CCNc1nc(-c2cccs2)cc(-c2cccs2)n1 | > 759 µM | 6.46 µM | –
CN=C1SC(=Nc2ccc(N(C)C)cc2)N1C | – | – | inactive
S=C1N(/N=C/c2c3ccccc3cc3ccccc23)C(=Nc2ccccc2)C(=Nc2ccccc2)N1c1ccccc1 | > 200 µM | > 200 µM | –
COC1CN(C)C(=Nc2cccc3ccccc23)S1 (centres undefined) | > 200 µM | 112 µM | –
O=C(Cc1ccccc1)Nn1c(-c2ccccc2)nc2ccccc2c1=O | 123 µM | > 200 µM | –
C[CH2][Sn]([CH2]C)([O]C(=O)c1ccc(OC)c(OC)c1OC)[O]C(=O)c1ccc(OC)c(OC)c1OC | > 83.2 µM | 7.59 µM | –
O=C(O)CSc1n[nH]c(Cc2ccccc2)n1 | > 1000 µM | > 1000 µM | –
O=C1C[C@H]2CCCN2[C@@H](c2ccccc2)C1 | > 603 µM | > 603 µM | –
O=C1C=C(Nc2ccc(Cl)cc2Cl)c2ccccc2C1=O | > 1.7 µM | > 1.7 µM | –
CC(=O)OCC1OC(n2c(C)c(C(C)=O)c(-c3ccco3)c(C#N)c2=S)C(OC(C)=O)C(OC(C)=O)C1OC(C)=O (centres undefined) | > 200 µM | 112 µM and 87.1 µM | –
CN(C)CCNc1nc(-c2ccc3ccccc3c2)nc2nc[nH]c12 | > 200 µM | 3.8 µM | –
Cc1nc2sc(C(=O)c3ccc(Cl)cc3)c(N)c2c(-c2ccccc2Cl)c1C(=O)Nc1ccccc1 | > 200 µM | 3.02 µM | –
C[C@]12CCCO[C@@H]1CC[C@@H]1[C@@H]2CC[C@]2(C)[C@@H](O)CC[C@@H]12 | > 200 µM | > 200 µM | –
[Pt].c1ccc([PH+](CC[PH+](CC[PH+](c2ccccc2)c2ccccc2)c2ccccc2)CC[PH+](c2ccccc2)c2ccccc2)cc1 (centres undefined) | > 15.8 µM | 12.6 µM | –
CCCCCCCCCCCCNC(=S)OC | – | – | inactive
Nc1ccc2nc(Nc3ccc(F)cc3)cnc2c1 | > 20.4 µM | > 20.4 µM | –
CN(C)c1cc[n+](-c2c([O-])c3ccccc3n(-c3ccccc3)c2=O)cc1 | > 200 µM | 195 µM | –
NC(=O)C(F)(F)C(N)=O | > 200 µM | > 200 µM | –
